{"source": "patent US11987586B1", "about": "(TAKEDA PHARMACEUTICAL COMPANY LIMITED, priority 2022, dated 2024)", "key": {"cynomolgus monkeys": {"test_system": "cynomolgus monkeys", "test": "Evaluation of wake-promoting effects in cynomolgus monkeys (EEG, EMG, locomotor activity)", "type": "in vivo, cynomolgus monkey", "conditions": "Macaca fascicularis, po, p.o., at zeitgeber time 12, 4 hours after administration, male cynomolgus monkeys, read-out: Wakefulness time (% of vehicle treatment) (Mean, n = 2-4)", "method": "The wake-promoting effects were evaluated by measuring the electroencephalogram (EEG), electromyogram (EMG) and locomotor activity in cynomolgus monkeys. Under isoflurane anesthesia (0.5-5%, Pfizer Japan Inc., Tokyo, Japan), male cynomolgus monkeys (2-3 years old, Hamri Co., Ltd., Ibaraki, Japan) were surgically implanted with radio-telemetry transmitters (L03-F3, Data Sciences International Inc., MN, USA). The two EEG electrodes were stereotaxically positioned at the parietal area and secured to the cranium with stainless-steel screws in contact with the dura. Bilateral EMG electrodes were implanted into the back cervical muscles. After at least a 1-month recovery period in home cages, the monkeys were habituated to the recording chamber (an acrylic cage 60W×55D×75H (cm)) located in a soundproof and electrically shielded room by the time animals sleep sufficiently in the experimental room. Cortical EEG, EMG and locomotor activity were recorded using the telemetry system (PhysioTel Digital telemetry platform, Data Sciences International Inc.). The signals were semi-automatically scored in 20-second epochs by a sleep scoring system (SleepSign, Kissei Comtec Co., Ltd., Nagano, Japan).\nTest compound (1 or 3 mg/kg) suspended in 0.5% methylcellulose aqueous solution or vehicle (i.e., 0.5% methylcellulose aqueous solution) was administered orally (p.o.) to monkeys at zeitgeber time 12 in a volume of 5 mL/kg body weight with a pretest-posttest design (n=2-4), and then EEG, EMG and locomotor activity were recorded for 4 hours after administration. The time spent in wakefulness for 4 hours after administration (% of vehicle treatment) was calculated by using SleepSign."}, "human OX2 receptor": {"molecular_target": "T1, human OX2 receptor (Homo sapiens, UniProt O43614)", "T1 construct": "expressed in transfected cells", "T1 sequence (O43614 1-444)": "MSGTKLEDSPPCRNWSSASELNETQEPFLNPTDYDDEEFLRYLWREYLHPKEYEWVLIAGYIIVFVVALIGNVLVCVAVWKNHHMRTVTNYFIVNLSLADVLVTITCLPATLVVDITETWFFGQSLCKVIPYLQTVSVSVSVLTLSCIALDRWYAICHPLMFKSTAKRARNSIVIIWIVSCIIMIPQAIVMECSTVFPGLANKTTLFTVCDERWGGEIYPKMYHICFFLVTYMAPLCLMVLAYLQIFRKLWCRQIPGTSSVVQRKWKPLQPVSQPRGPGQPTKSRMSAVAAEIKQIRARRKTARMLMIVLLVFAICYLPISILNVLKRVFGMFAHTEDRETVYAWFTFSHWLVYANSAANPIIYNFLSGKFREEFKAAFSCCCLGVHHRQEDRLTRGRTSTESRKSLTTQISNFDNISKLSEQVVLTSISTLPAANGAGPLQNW", "test": "Measurement of orexin type 2 receptor agonist activity (calcium fluorescence, Fluo-4, FDSS)", "type": "cell-based", "conditions": "3 uM test compound; CHO cells expressing human OX2 receptor; DMSO = 0%, 10 nM orexin A (human) = 100%", "in_short": "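CHO-K1 cells stably expressing human OX2 receptor (residues 1-444) were loaded with Fluo-4 AM plus probenecid. Calcium fluorescence after compound addition was recorded for 1 min 40 s. Activity (%) was scaled between DMSO (0%) and 10 nM orexin A final (100%).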"}}}
{"compound": "CS(=O)(=O)N[C@@H]1Cn2c(cn(-c3noc4cccc(-c5c(F)cc(F)cc5F)c34)c2=O)C1(F)F", "note": "[Example 16, N-{(6R)-7,7-Difluoro-3-oxo-2-[4-(2,4,6-trifluorophenyl)-1,2-benzoxazol-3-yl]-2,5,6,7-tetrahydro-3H-pyrrolo[1,2-c]imidazol-6-yl}methanesulfonamide]", "values": [{"measurement": "response vs control in vivo at 1 mg/kg", "setting": "cynomolgus monkeys", "value": 546, "unit": "%"}, {"measurement": "OX2R agonist activity (3 uM, %)", "setting": "human OX2 receptor", "value": 107, "unit": "%"}]}
{"compound": "CS(=O)(=O)N[C@@H]1CN2C(=O)N(c3noc4cccc(-c5c(F)cc(F)cc5F)c34)C[C@@H]2C1(F)F", "note": "[Example 71, N-{(6R,7aR)-7,7-Difluoro-3-oxo-2-[4-(2,4,6-trifluorophenyl)-1,2-benzoxazol-3-yl]hexahydro-1H-pyrrolo[1,2-c]imidazol-6-yl}methanesulfonamide]", "values": [{"measurement": "response vs control in vivo at 1 mg/kg", "setting": "cynomolgus monkeys", "value": 703, "unit": "%"}, {"measurement": "OX2R agonist activity (3 uM, %)", "setting": "human OX2 receptor", "value": 97, "unit": "%"}]}
{"compound": "CS(=O)(=O)N[C@@H]1Cn2c(cn(-c3noc4cc(F)c(F)c(-c5c(F)cccc5F)c34)c2=O)C1(F)F", "note": "[Example 142, N-{(6R)-2-[4-(2,6-difluorophenyl)-5,6-difluoro-1,2-benzoxazol-3-yl]-7,7-difluoro-3-oxo-2,5,6,7-tetrahydro-3H-pyrrolo[1,2-c]imidazol-6-yl}methanesulfonamide]", "values": [{"measurement": "response vs control in vivo at 1 mg/kg", "setting": "cynomolgus monkeys", "value": 690, "unit": "%"}, {"measurement": "OX2R agonist activity (3 uM, %)", "setting": "human OX2 receptor", "value": 99, "unit": "%"}]}
{"compound": "CCS(=O)(=O)N[C@@H]1Cn2c(cn(-c3noc4cc(F)cc(-c5c(F)cccc5F)c34)c2=O)C1(F)F", "note": "[Example 282, N-{(6R)-2-[4-(2,6-difluorophenyl)-6-fluoro-1,2-benzoxazol-3-yl]-7,7-difluoro-3-oxo-2,5,6,7-tetrahydro-3H-pyrrolo[1,2-c]imidazol-6-yl}ethanesulfonamide]", "values": [{"measurement": "response vs control in vivo at 1 mg/kg", "setting": "cynomolgus monkeys", "value": 418, "unit": "%"}, {"measurement": "OX2R agonist activity (3 uM, %)", "setting": "human OX2 receptor", "value": 105, "unit": "%"}]}
{"compound": "CCS(=O)(=O)N[C@H]1C[C@H]2CN(c3noc4cc(Cl)cc(-c5c(F)cccc5F)c34)C(=O)N2C1", "note": "[Example 50, N-{(6S,7aS)-2-[6-Chloro-4-(2,6-difluorophenyl)-1,2-benzoxazol-3-yl]-3-oxohexahydro-1H-pyrrolo[1,2-c]imidazol-6-yl}ethanesulfonamide]", "values": [{"measurement": "response vs control in vivo at 1 mg/kg", "setting": "cynomolgus monkeys", "value": 176, "unit": "%"}, {"measurement": "OX2R agonist activity (3 uM, %)", "setting": "human OX2 receptor", "value": 103, "unit": "%"}]}
{"compound": "CS(=O)(=O)N[C@@H]1CN2C(=O)N(c3noc4ccc(F)c(-c5c(F)cccc5F)c34)CC[C@@H]2C1(F)F", "note": "[Example 265, N-{(4aR,6R)-2-[4-(2,6-difluorophenyl)-5-fluoro-1,2-benzoxazol-3-yl]-5,5-difluoro-1-oxooctahydropyrrolo[1,2-c]pyrimidin-6-yl}methanesulfonamide]", "values": [{"measurement": "response vs control in vivo at 1 mg/kg", "setting": "cynomolgus monkeys", "value": 472, "unit": "%"}, {"measurement": "OX2R agonist activity (3 uM, %)", "setting": "human OX2 receptor", "value": 107, "unit": "%"}]}
{"compound": "CCS(=O)(=O)N[C@@H]1CN2C(=O)N(c3noc4cccc(-c5c(F)cc(F)cc5F)c34)C[C@@H]2C1(F)F", "note": "[Example 24, N-{(6R,7aR)-7,7-Difluoro-3-oxo-2-[4-(2,4,6-trifluorophenyl)-1,2-benzoxazol-3-yl]hexahydro-1H-pyrrolo[1,2-c]imidazol-6-yl}ethanesulfonamide]", "values": [{"measurement": "response vs control in vivo at 1 mg/kg", "setting": "cynomolgus monkeys", "value": 393, "unit": "%"}, {"measurement": "OX2R agonist activity (3 uM, %)", "setting": "human OX2 receptor", "value": 104, "unit": "%"}]}
{"compound": "CS(=O)(=O)N[C@@H]1Cn2c(cn(-c3noc4ccc(F)c(-c5c(F)cc(F)cc5F)c34)c2=O)C1(F)F", "note": "[Example 77, N-{(6R)-7,7-Difluoro-2-[5-fluoro-4-(2,4,6-trifluorophenyl)-1,2-benzoxazol-3-yl]-3-oxo-2,5,6,7-tetrahydro-3H-pyrrolo[1,2-c]imidazol-6-yl}methanesulfonamide]", "values": [{"measurement": "response vs control in vivo at 1 mg/kg", "setting": "cynomolgus monkeys", "value": 645, "unit": "%"}, {"measurement": "OX2R agonist activity (3 uM, %)", "setting": "human OX2 receptor", "value": 100, "unit": "%"}]}
{"compound": "CCS(=O)(=O)N[C@H]1C[C@H]2CN(c3noc4cccc(-c5c(F)cccc5F)c34)C(=O)N2C1", "note": "[Example 1, N-{(6S,7aS)-2-[4-(2,6-Difluorophenyl)-1,2-benzoxazol-3-yl]-3-oxohexahydro-1H-pyrrolo[1,2-c]imidazol-6-yl}ethanesulfonamide]", "values": [{"measurement": "response vs control in vivo at 3 mg/kg", "setting": "cynomolgus monkeys; 3 mg/kg", "value": 383, "unit": "%"}, {"measurement": "OX2R agonist activity (3 uM, %)", "setting": "human OX2 receptor", "value": 104, "unit": "%"}]}
{"compound": "CS(=O)(=O)N[C@@H]1CN2C(=O)N(c3noc4cc(F)cc(-c5c(F)cc(F)cc5F)c34)C[C@@H]2C1(F)F", "note": "[Example 149, N-{(6R,7aR)-7,7-Difluoro-2-[6-fluoro-4-(2,4,6-trifluorophenyl)-1,2-benzoxazol-3-yl]-3-oxohexahydro-1H-pyrrolo[1,2-c]imidazol-6-yl}methanesulfonamide]", "values": [{"measurement": "response vs control in vivo at 1 mg/kg", "setting": "cynomolgus monkeys", "value": 731, "unit": "%"}, {"measurement": "OX2R agonist activity (3 uM, %)", "setting": "human OX2 receptor", "value": 95, "unit": "%"}]}
{"compound": "CS(=O)(=O)N[C@@H]1CN2C(=O)N(c3noc4cccc(-c5c(F)cc(F)cc5F)c34)CC[C@@H]2C1(F)F", "note": "[Example 213, N-{(4aR,6R)-5,5-Difluoro-1-oxo-2-[4-(2,4,6-trifluorophenyl)-1,2-benzoxazol-3-yl]octahydropyrrolo[1,2-c]pyrimidin-6-yl}methanesulfonamide]", "values": [{"measurement": "response vs control in vivo at 1 mg/kg", "setting": "cynomolgus monkeys", "value": 447, "unit": "%"}, {"measurement": "OX2R agonist activity (3 uM, %)", "setting": "human OX2 receptor", "value": 104, "unit": "%"}]}
{"compound": "CS(=O)(=O)N[C@@H]1CN2C(=O)N(c3noc4cc(F)c(F)c(-c5c(F)cc(F)cc5F)c34)CC[C@@H]2C1(F)F", "note": "[Example 243, N-{(4aR,6R)-2-[5,6-difluoro-4-(2,4,6-trifluorophenyl)-1,2-benzoxazol-3-yl]-5,5-difluoro-1-oxooctahydropyrrolo[1,2-c]pyrimidin-6-yl}methanesulfonamide]", "values": [{"measurement": "response vs control in vivo at 1 mg/kg", "setting": "cynomolgus monkeys", "value": 618, "unit": "%"}, {"measurement": "OX2R agonist activity (3 uM, %)", "setting": "human OX2 receptor", "value": 109, "unit": "%"}]}
{"compound": "O=C1N(c2noc3cccc(-c4c(F)cc(F)cc4F)c23)CC[C@H]2N1C[C@@H](NS(=O)(=O)C1CC1)C2(F)F", "note": "[Example 242, N-{(4aR,6R)-5,5-Difluoro-1-oxo-2-[4-(2,4,6-trifluorophenyl)-1,2-benzoxazol-3-yl]octahydropyrrolo[1,2-c]pyrimidin-6-yl}cyclopropanesulfonamide]", "values": [{"measurement": "OX2R agonist activity (3 uM, %)", "setting": "human OX2 receptor", "value": 105, "unit": "%"}]}
{"compound": "CS(=O)(=O)N[C@@H]1Cn2c(cn(-c3noc4ccc(F)c(-c5c(F)cccc5F)c34)c2=O)C1(F)F", "note": "[Example 75, N-{(6R)-2-[4-(2,6-Difluorophenyl)-5-fluoro-1,2-benzoxazol-3-yl]-7,7-difluoro-3-oxo-2,5,6,7-tetrahydro-3H-pyrrolo[1,2-c]imidazol-6-yl}methanesulfonamide]", "values": [{"measurement": "OX2R agonist activity (3 uM, %)", "setting": "human OX2 receptor", "value": 99, "unit": "%"}]}
{"compound": "CS(=O)(=O)N[C@@H]1Cn2c(cn(-c3noc4cc(C(F)(F)F)cc(-c5c(F)cccc5F)c34)c2=O)C1(F)F", "note": "[Example 74, N-{(6R)-2-[4-(2,6-difluorophenyl)-6-(trifluoromethyl)-1,2-benzoxazol-3-yl]-7,7-difluoro-3-oxo-2,5,6,7-tetrahydro-3H-pyrrolo[1,2-c]imidazol-6-yl}methanesulfonamide]", "values": [{"measurement": "OX2R agonist activity (3 uM, %)", "setting": "human OX2 receptor", "value": 104, "unit": "%"}]}
{"compound": "CCS(=O)(=O)N[C@@H]1CN2C(=O)N(c3noc4cc(OC(F)F)cc(-c5c(F)cc(F)cc5F)c34)CC[C@@H]2C1(F)F", "note": "[Example 303, N-{(4aR,6R)-2-[6-(difluoromethoxy)-4-(2,4,6-trifluorophenyl)-1,2-benzoxazol-3-yl]-5,5-difluoro-1-oxooctahydropyrrolo[1,2-c]pyrimidin-6-yl}ethanesulfonamide]", "values": [{"measurement": "OX2R agonist activity (3 uM, %)", "setting": "human OX2 receptor", "value": 103, "unit": "%"}]}
{"compound": "CS(=O)(=O)N[C@@H]1CN2C(=O)N(c3noc4cc(F)cc(-c5c(F)cccc5F)c34)C[C@@H]2C1(F)F", "note": "[Example 72, N-{(6R,7aR)-2-[4-(2,6-Difluorophenyl)-6-fluoro-1,2-benzoxazol-3-yl]-7,7-difluoro-3-oxohexahydro-1H-pyrrolo[1,2-c]imidazol-6-yl}methanesulfonamide]", "values": [{"measurement": "OX2R agonist activity (3 uM, %)", "setting": "human OX2 receptor", "value": 98, "unit": "%"}]}
{"compound": "CS(=O)(=O)N[C@@H]1Cn2c(cn(-c3noc4cc(C(F)F)cc(-c5c(F)cc(F)cc5F)c34)c2=O)C1(F)F", "note": "[Example 141, N-{(6R)-2-[6-(difluoromethyl)-4-(2,4,6-trifluorophenyl)-1,2-benzoxazol-3-yl]-7,7-difluoro-3-oxo-2,5,6,7-tetrahydro-3H-pyrrolo[1,2-c]imidazol-6-yl}methanesulfonamide]", "values": [{"measurement": "OX2R agonist activity (3 uM, %)", "setting": "human OX2 receptor", "value": 94, "unit": "%"}]}
